In patent US10406125B2, “Combination comprising an aminothiolester compound or a pharmaceutically acceptable salt thereof and a compound able to increase the H2O2 level in cancer cells of a subject” (ADVANCED BIODESIGN, priority 2015, dated 2019):
Like-named read-outs stand apart in the source and are kept apart here.

Assays:
[1] = system: H2O2 level in Colo357 cell line; test: Measurement of H2O2 level in Colo357 cell line (FIG. 8A); format: cell-based; details: CPPD 20 μmol·L−1, Doxo 25 μmol·L−1
Description: Intracellular H2O2 production in live cells was measured using Total ROS/superoxide detection kit (Enzo life science), following the manufacturer's instructions. The assay uses specific H2O2/RNS probes that upon reaction with H2O2 and RNS species are oxidized rapidly to highly fluorescent compounds. Fluorescence intensity is proportional to the total H2O2/RNS levels within the sample. […] The day before the analysis, cells were seeded in 96-well black/clear bottom plates at a density of 2×10^4 in culture media according to cell suppliers instructions, supplemented with FBS (10% v/v), 10 units of penicillin/ml and 100 mg of streptomycin. Cells were kept at 37° C. in a humid atmosphere of 95% air: 5% CO2 overnight. […] After the incubation period, wells were loaded with 100 μL of H2O2 Detection Solution, containing the respective treatment agent or controls and incubated for 60 min at 37° C. in the dark. Several wells were left without cells for the background fluorescence control measurements. Plates were read using Appliskan fluorescence microplate reader (Thermo Scientific) (ex=560 nm, Em=600). Data are expressed as the change in arbitrary fluorescence units produced from equal amount of cells and normalized to total protein input.

Colo357 = test: Viability of Colo357 cells under combination treatment (FIG. 8B); format: cell-based; details: Colo357 (high GSH), combination treatment with S-methyl 4-(dimethylamino)-4-methylpent-2-ynethioate
THP-1 = test: Cell viability assay (Rezasurin), 96 well format; format: cell-based; details: Homo sapiens, 48 h
HCC827 = test: Cell viability assay (Rezasurin), 96 well format; format: cell-based; details: Homo sapiens, 48 h, DIMATE alone or with PCN 40 μM, read-out: abs.IC50
Hop62 = test: Cell viability assay (Rezasurin), 96 well format; format: cell-based; details: Homo sapiens, HOP-62, 48 h, DIMATE alone or with PCN 40 μM, read-out: abs.IC50
HL-60, NT2/D1 = test: Quantification of MDA and HNE adducts by ELISA in sensitive cells; format: cell-based, human; details: 5 or 10 μmol·L^−1, 24 hours
Description: (§1) Quantitative Determination of FINE-Protein and MDA/Protein Adducts by ELISA
(§2) The formation of HNE-adducts and MDA-adducts was quantified with the Oxiselect HNE Adduct Elisa kit (Cell Biolabs, San Diego, Calif.) and the OxiSelect MDA Adduct ELISA Kit (Cell Biolabs), respectively. Briefly, after a treatment with S-methyl 4-(dimethylamino)-4-methylpent-2-ynethioate during 24 hours, cells were lysed by sonication in reducing SDS Sample Buffer. Homogenates were diluted to 10 μg protein/mL and adsorbed in 96-well protein binding plates by incubation at 37° C. for at least 2 hours. Wells were washed twice with PBS and incubated for an additional 2 hours at room temperature on an orbital shaker. Following three washes in PBS, 100 μL of anti-HNE antibody or anti-MDA antibody were added to the wells and incubated for 1 hour at room temperature. Subsequently, goat anti-rabbit secondary antibody-HRP conjugate (diluted 1/1000 with the assay diluent) was added and incubation continued for 1 hour. Wells were washed five times in PBS and HRP-substrate was added. Reaction was stopped with an acidic solution, and absorbance read on a microplate reader at 450 nm. The level of HNE-adducts and of MDA-adducts was determined by comparison with a standard curve prepared from HNE-BSA and MDA-BSA standards supplied by the manufacturer.

MSC = test: Quantification of MDA and HNE adducts by ELISA in resistant cells; format: cell-based; details: 5 or 10 μmol·L^−1, 24 hours
Description: as §1, §2

[2] = cited from earlier work
H2O2 levels = test: Measurement of H2O2 production after cell exposure to pyocianin; format: cell-based, human; details: pyocianin 40 μM
Description: Measurement of H2O2 Production
Intracellular H2O2 production in live cells was measured using Total ROS/superoxide detection kit (Enzo life science), following the manufacturer's instructions. The assay uses specific H2O2/RNS probes that upon reaction with H2O2 and RNS species are oxidized rapidly to highly fluorescent compounds. Fluorescence intensity is proportional to the total H2O2/RNS levels within the sample. […] The day before the analysis, cells were seeded in 96-well black/clear bottom plates at a density of 2×10^4 in culture media according to cell suppliers instructions, supplemented with FBS (10% v/v), 10 units of penicillin/ml and 100 […]. Cells were kept at 37° C. in a humid atmosphere of 95% air: 5% CO2 overnight. On the day of the analysis, cells media was replaced by 100 μL of phenol free-media supplemented as above, without any treatment, with S-methyl 4-(dimethylamino)-4-methylpent-2-ynethioate for 6 hours, vehicle HEPES for 6 hours, or with the different control agents PCN and NAC for 20 min. […] Several wells were left without cells for the background fluorescence control measurements. Plates were read using Appliskan fluorescence microplate reader (Thermo Scientific) (ex=560 nm, Em=600). Data are expressed as the change in arbitrary fluorescence units produced from equal amount of cells and normalized to total protein input.

cancer cells = test: Cell viability after exposure to pyocianin; format: cell-based, human; details: pyocianin 40 μM
Description: Cells were seeded into 96-well cell culture plates at concentrations required to ensure approximately 80% confluence in control (untreated cells) at the end of experiment (0.5×10^4-5×10^4 cell/well). The sensitivity towards S-methyl 4-(dimethylamino)-4-methylpent-2-ynethioate was determined using different concentrations of the drug (from 0.01 to 100 μM). After 48 hours, the growth-inhibitory effect of the drug was analyzed using Rezasurin, according to manufactures instruction. To ensure good data quality and to minimize impact of pipetting errors, each particular drug concentration was assessed based on mean fluorescence intensity from 8 separate wells. The drug response was quantified by the half maximal inhibitory concentration (IC50) for each particular cell line, and determined by non-linear regression analysis of log-dose/response curves. Cut-off value for resistance to S-methyl 4-(dimethylamino)-4-methylpent-2-ynethioate was determined statistically (>2 S.D. above the IC50 geometric mean). The in-vitro threshold value for hypersensitivity to the drug has been defined as <IC50 geometric mean.
In a different experiment, cells showing resistance to S-methyl 4-(dimethylamino)-4-methylpent-2-ynethioate (THP-1, HCC827, and Hop62) were challenged with H2O2 inducer. […]

With COc1cccc2c1C(=O)c1c(O)c3c(c(O)c1C2=O)C[C@@](O)(C(=O)CO)C[C@@H]3O[C@H]1C[C@H](N)[C@H](O)[C@H](C)O1 [Doxo, Doxorubicin] the “increase of H2O2 level” value [1] was 10 000% and the effect on viability (Colo357) was “no effect”.
For CSC(=O)C#CC(C)(C)N(C)C [DIMATE, S-methyl 4-(dimethylamino)-4-methylpent-2-ynethioate], the IC50 (THP-1; THP-1, DIMATE alone or with PCN 40 μM, read-out: abs.IC50) was 46 µM, the IC50 (THP-1; THP-1 resistant cells, DIMATE alone or with H2O2 inducer at fixed concentration (2-ME 100 μM, ATO 1 μM, Daunorubicine 40 nM, Doxorubicine 20 nM, Etoposide 500 nM, Mitoxanthrone 50 nM, Parthenolide 100 nM, Piperlongumine 2 μM), read-out: IC50) was 46 µM and the IC50 (HCC827) was 25 µM. For the same compound, the IC50 (Hop62) was 39 µM, the HNE-adducts level (HL-60, NT2/D1) was > 1 μg per μg of total protein and the MDA-adducts level (HL-60, NT2/D1) was “above 100 ng per μg of total protein”. For the same compound, the HNE-adducts level (MSC) was < 1 μg per μg of total protein and the MDA-adducts level (MSC) was < 100 ng per μg of total protein.
In the case of CC(=O)N[C@@H](CS)C(=O)O [NAC, N-acetyl-L-cysteine], the “rate constant, scavenging of hydroxy radicals” value ([2]; hydroxy radicals) is given as 1.36×10^10 M^−1,s^−1 and the “reaction with superoxide anion” value ([2]; superoxide anion) is given as “no reaction”.
With Cn1c2cccc(=O)c-2nc2ccccc21 [pyocianin, pyocyanin] the “increase in H2O2 levels” value (H2O2 levels) was “two-fold increase” and the “effect on cell viability” value (cancer cells) was “without affecting cell viability”.
With N.N.[Cl][Pt][Cl] [CPPD, Cisplatin] the “increase of H2O2 level” value [1] was 200% and the effect on viability (Colo357) was “no effect”.
